# Source: publication PMC6207338 (Nature medicine, 2018)
# Substitutions are numbered along the chain they refer to. Where two headings read alike, the source gives them in different places.
# What was measured:
# [1] = system: glucose production; details: i.v. infusion; cited from earlier work
# [2] = molecular target: T1, mouse FBP1 (WT) (Mus musculus, UniProt Q9QXD6); test: FBPase coupled assay, recombinant mouse FBP1 WT; format: biochemical
# T1 sequence (Q9QXD6 1-338): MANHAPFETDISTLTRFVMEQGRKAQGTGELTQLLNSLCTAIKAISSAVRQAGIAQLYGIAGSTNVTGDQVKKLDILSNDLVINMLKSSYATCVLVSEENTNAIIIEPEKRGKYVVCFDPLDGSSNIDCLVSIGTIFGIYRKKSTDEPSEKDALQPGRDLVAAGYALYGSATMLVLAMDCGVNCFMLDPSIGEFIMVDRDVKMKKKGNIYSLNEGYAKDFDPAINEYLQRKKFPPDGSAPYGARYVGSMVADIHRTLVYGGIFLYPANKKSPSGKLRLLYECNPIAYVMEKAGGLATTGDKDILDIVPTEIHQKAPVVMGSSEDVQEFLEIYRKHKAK
# [3] = molecular target: T2, mouse FBP1 Y114F (Mus musculus, UniProt Q9QXD6, Y114F); test: FBPase coupled assay, mouse FBP1 Y114F; format: biochemical; details: untagged Y114F, data not shown
# T2 sequence (Q9QXD6 1-338 Y114F): T1 sequence (Q9QXD6 1-338) with Y114F
# [4] = system: AMPK; test: AMPK activation in tissue by Western blotting / kinase assay; format: in vivo, mouse
# [5] = rats, cited from earlier work
# [6] = system: FBP1^WT/WT (WT) and FBP1^G27P/G27P (KI) mice; test: Metformin-euglycemic clamp; format: in vivo, mouse
# [7] = system: mouse liver; test: Liver adenine/Z nucleotides and metabolites after drug treatment; format: in vivo; details: 250 mg.kg^-1 p.o.
# [8] = Metformin assay in plasma and tissues
# [9] = in vivo; details: mouse, plasma, po, 250 mg.kg^-1
# [10] = system: isolated hepatocytes; details: lactate and pyruvate as sole carbon sources, 1 mM; cited from earlier work
# [11] = system: HFD-fed WT and KI mice; test: Metformin in high-fat diet; details: 250 mg.kg^-1 p.o., 2 h
# [12] = random blood samples from diabetic subjects; cited from earlier work
# [13] = system: rabbit muscle AMPD1; test: AMPD1 assay; format: biochemical; details: rabbit muscle AMPD1, up to 10 mM
# [14] = [11C]-metformin microPET; format: in vivo, mouse; details: acute intravenous [11C]-metformin, WT vs KI mice
# [15] = system: gastrocnemius (GAS) muscle; test: Skeletal muscle adenine/Z nucleotides after AICAR; format: in vivo, mouse; details: following AICAR treatment
# [16] = system: FBP1^WT/WT (WT) and FBP1^G27P/G27P (KI) mice; test: AICAR tolerance in mice; format: in vivo, mouse; details: 250 mg.kg^-1 i.p.
# [17] = end of clamp, 1.875 mg.kg^-1.min^-1 i.v.
compound,measurement,setting,value
N#Cc1c(O)c2c(-c3ccc(-c4ccccc4O)cc3)csc2[nH]c1=O [A769662],effect on glucose production,[1],no effect on glucose production
"CC(C)Cc1sc(N)nc1-c1ccc(P(=O)(O)O)o1 [MB05032, 2-amino-5-isobutyl-4-[5-phosphono-2-furanyl]thiazole]","fold less sensitive, mouse FBP1 compared to rat FBP1","[2]; recombinant, in vitro",~ 2 fold
"O=P(O)(O)OC[C@H]1O[C@@](CO)(OP(=O)(O)O)[C@@H](O)[C@@H]1O [F-2,6-P2, fructose-2,6-bisphosphate]","IC50 for F-2,6-P2",[3],increased IC50
"CN(C)C(=N)N=C(N)N [metformin, N,N-dimethylbiguanide]",phosphorylation of liver AMPK and ACC,"[4]; mouse, in vivo, po",robust increase
same,plasma metformin concentration,"[5]; 50 mg.kg^-1 intravenously, 30 min after administration",~ 74 μM
same,plasma metformin concentration,[5]; 100 mg.kg^-1,345 µM
same,plasma metformin concentration,[5]; 250 mg.kg^-1,1300 µM
same,glucose infusion rate (GIR),"[6]; 1.875 mg.kg^-1.min^-1 i.v., WT (and also KI) mice",failed to increase GIR significantly from baseline
same,"suppression of EndoRa, gluconeogenesis and glycogenolysis","[6]; 3.75 mg.kg^-1.min^-1 i.v., KI mice",ablated
same,glucose infusion rate (GIR),"[6]; 3.75 mg.kg^-1.min^-1 i.v., KI mice, 120 min clamp",only a modest increase in GIR
same,suppression of endogenous glucose production (EndoRa),"[6]; 3.75 mg.kg^-1.min^-1 i.v., WT mice",~ 20%
same,glucose infusion rate (GIR),"[6]; 3.75 mg.kg^-1.min^-1 i.v., WT mice, 120 min clamp",substantial increase in GIR
same,increase in glucose disposal rate (Rd),"[6]; 3.75 mg.kg^-1.min^-1 i.v., both WT and KI",40-50%
same,direct inhibitory effect on FBP1,"[2]; purified mouse FBP1, up to 10 mM",does not have a direct inhibitory effect on FBP1 up to 10 mM
same,decrease in hepatic energy charge,[7]; both genotypes,~ 10%
same,increase in hepatic [AMP]:[ATP],[7]; both genotypes,~ 2 fold
same,hepatic cAMP,"[7]; HFD-fed mice, 2 h",no significant effect
same,liver metformin level,"[8]; 250 mg.kg^-1 p.o., 1 h, comparable between genotypes",~ 0.7 μmol.g^-1
same,liver metformin,[8]; [17],~ 0.8 μmol.g^-1
same,plasma metformin,[8]; [17],~ 170 μM
same,concentration at 1 h,[9],125 to 150 µM
same,reduction in intracellular ATP concentration,[10],~ 85%
same,decrease of blood glucose,[11]; HFD-fed KI mice,~ 10%
same,reduction of blood glucose levels,[11]; HFD-fed WT mice,30-40%
same,"plasma metformin levels, upper end of range",[12],868 µM
same,inhibition of AMP deaminase 1 (AMPD1),[13],Neither does it appear to inhibit
CN([11CH3])C(=N)N=C(N)N [[^11C]-metformin],kinetics and total metformin uptake in liver (PET),[14],comparable between WT and KI mice
"NC(=O)c1ncn([C@@H]2O[C@H](CO)[C@@H](O)[C@H]2O)c1N [AICAR, 5-aminoimidazole-4-carboxamide-1-β-D-ribofuranoside]",phosphorylation of liver AMPK and ACC,"[4]; liver, WT and KI mice, AICAR 250 mg.kg^-1 i.p., 60 min",robustly stimulated
same,AMPKα T172 phosphorylation and activity in skeletal muscle,"[4]; skeletal muscle, both genotypes, AICAR 250 mg.kg^-1 i.p., 60 min",failed to increase
same,"ZMP concentration in skeletal muscle, fold less compared to liver",[15],> 50 fold
same,"[ZMP]:[ATP] ratio in skeletal muscle, fold less compared to liver",[15],> 150 fold
same,blood lactate levels,"[16]; KI mice, t = 60 min",only modestly
same,plasma insulin levels,"[16]; WT and KI mice, t = 60 min",no significant change
same,decrease in blood glucose levels,"[16]; WT mice, fasted 16 h",~ 60%
same,blood lactate levels,"[16]; WT mice, t = 60 min",marked increase
same,plasma glucagon levels,"[16]; WT mice, t = 60 min",increased
